# Measured values published in US4146717A, “Nitroquinazolinone compounds having antiviral properties” (priority 1974, dated 1979).
# Like-named read-outs stand apart in the source and are kept apart here.
# Key:
# [1] = test system: vaccinia virus IHD strain; assay: microbe, parasite or virus in culture; format: cell-based; conditions: for MIC: Orthopoxvirus vaccinia, in Gallus gallus, 72 h, read-out: minimum inhibitory concentration (MIC); for Chemotherapeutic index (MTC/MIC): chick embryo fibroblast cells, 4320 min
# [2] = Toxic effects in chick embryo fibroblast cell culture (minimum toxic concentration); conditions: chicken, chick embryo fibroblast cells
# [3] = test system: herpes simplex virus HF strain; assay: Effects on herpes simplex virus multiplication in chick embryo fibroblast cell culture (plaque reduction); format: cell-based; conditions: 5 μg/ml, 4 days at 37° C; for Average number of plaques: non-medicated control 45; for inhibition at 5 µg/mL: Fibroblast, 96 h, read-out: Percentage inhibition of occurrences of plaques
# Protocol: Effects on herpes simplex virus multiplication in chick embryo fibroblast cell culture.
# A general procedure of plaque-reduction method was employed. Monolayers of chick embryo fibroblast cells were prepared by a general procedure, i.e., trypsinization of 10 day old chick embryo and then 2 days' incubation in Eagle's minimum essential medium (Eagle's MEM) containing a 5% calf serum at 37° C. in a plaque tube. Then, growth medium was discarded and about 100 plaque forming units (PFU) of herpes simplex virus HF strain per plaque tube were challenged. […] After 4 day's incubation at 37° C., the number of plaques was counted and compared with the controlled plaque tube without test compounds.
# cells: chick embryo fibroblast cells
# virus: herpes simplex virus HF strains
# observation: by counting the number of plaques after 4 days' incubation
# [4] = test system: Influenza virus NWS strain; format: in vivo, mice (ICR strain); conditions: 14 days observation, control 1/8
# [5] = Acute toxicity in mice, intraperitoneal; format: in vivo, mice (ddN strain); conditions: for No. of survivors/No. of tested: 7 days observation
# Text: The compounds of the present invention are not only very effective but also show no side effects. For example, acute toxicity of the present compound by the intraperitoneal injection in mice is remarkably lower than Methisazone as shown in Table III.
# animals: male mice weighing 17 to 20 g of ddN strain
# administration: intraperitoneally, suspension in 0.5% carboxymethyl
# observation period: 7 days after an administration
# [6] = test system: vaccinia virus IHD strain; format: in vivo, mice (ICR strain); conditions: -2 to 100 hours after virus challenge, 12 days observation; for Survival rate, SC: 100 mg/kg subcutaneously; for Survival rate, PO: 100 mg/kg orally
# [7] = test system: parainfluenza virus type 1, Sendai virus; assay: Effects on parainfluenza virus multiplication in chick embryo fibroblast cell culture (haemagglutinating titration); format: cell-based; conditions: 2 days at 37° C, non-medicated control 32
# Protocol: Effects on parainfluenza virus multiplication in chick embryo fibroblast cell culture.
# A general procedure of haemagglutinating titration was employed. Monolayers of chick embryo fibroblast cells were prepared by the same procedure as described in Example 12. Parainfluenza virus type 1, haemagglutinating virus of Japan (HVJ), so called Sendai virus was challenged on 3rd day monolayer cell sheet. […] After 2 days' incubation at 37° C., the cells were harvested, disrupted by freezing and thawing and centrifuged. The haemagglutinating titre of the supernatant was assayed using 1% guinea pig red blood cell as usual.
# cells: chick embryo fibroblast cell
# virus: parainfluenza virus type 1, Sendai virus
# [8] = test system: adeno virus type 8 Kanehisa strain; conditions: concentration 40; 5th day after infection; non-medicated control 512
# [9] = cited from earlier work; for undesirable side effects: clinical
# [10] = test system: DNA type viruses such as herpes simplex and vaccinia; conditions: clinical use; cited from earlier work
Structure (SMILES),MIC [1],Chemotherapeutic index (MTC/MIC) ([1]; vaccinia virus),MCC at 72 h [2],further results
O=c1nc(C2CCCCC2)c2cc([N+](=O)[O-])ccc2n1CC1CC1 [compound 21],5 µg/mL,10,50 µg/mL,
O=c1nc(-c2ccccc2)c2cc([N+](=O)[O-])ccc2n1Cc1cccs1 [compound 12],0.6 µg/mL,80,50 µg/mL,
CCOCCn1c(=O)nc(-c2ccccc2)c2cc([N+](=O)[O-])ccc21 [compound 19],5 µg/mL,> 20,> 100 µg/mL,
O=c1nc(-c2ccccc2)c2cc([N+](=O)[O-])ccc2n1Cc1ccccc1Cl [compound 8],0.25 µg/mL,20,5 µg/mL,
O=c1nc(-c2ccccc2)c2cc([N+](=O)[O-])ccc2n1CC1CCCCO1 (centres unmarked) [compound 5],0.2 µg/mL,,> 100 µg/mL,"Average number of plaques [3]: 9; inhibition at 5 µg/mL [3]: 80%; Survival rate ([4]; 10 mg/kg subcutaneously): 4/8; Survival rate ([4]; 50 mg/kg subcutaneously): 6/8; No. of survivors/No. of tested ([5]; 1000 mg/kg intraperitoneally): 5/5; No. of survivors/No. of tested ([5]; 2000 mg/kg intraperitoneally): 4/5; Chemotherapeutic index (MTC/MIC) [1]: > 500; Survival rate, SC [6]: 100%; Haemagglutinating titre ([7]; 12.5 μg/ml): 4; Haemagglutinating titre ([7]; 25 μg/ml): < 2; Haemagglutinating titre [8]: 64"
O=c1nc(-c2ccccc2)c2cc([N+](=O)[O-])ccc2n1CC1CCCCCC1 [compound 1],0.1 µg/mL,1000,100 µg/mL,
CCN(CC)C(=O)Cn1c(=O)nc(-c2ccccc2)c2cc([N+](=O)[O-])ccc21 [compound 17],5 µg/mL,> 20,> 100 µg/mL,
O=c1[nH]c(=O)n([C@H]2C[C@H](O)[C@@H](CO)O2)cc1I [Idoxuridine],,,,toxicity limiting use ([9]; clinical use): it can only be used by topical application because of its toxicity; antiviral spectrum [10]: only effective against DNA type viruses such as herpes simplex and vaccinia
"CN1C(=O)C(=NNC(N)=S)c2ccccc21 [Methisazone, 1-methylindole-2,3-dione 3-thiosemicarbazone, reference compound]",5 µg/mL,4,20 µg/mL,"undesirable side effects [9]: severe vomiting, dermatitis and jaundice; No. of survivors/No. of tested ([5]; 1000 mg/kg intraperitoneally): 3/5; No. of survivors/No. of tested ([5]; 2000 mg/kg intraperitoneally): 0/5; gastro-duodenal hemorrhage and intestinal ulceration ([5]; mice of the acute toxicity test): Severe gastro-duodenal hemorrhage and intestinal ulceration were observed in dead mice; minimum inhibitory concentration (MIC) ([1]; vaccinia virus IHD strain, 1.1 × 10^4 PFU/tube, CPE after 3 days' incubation at 37° C): 5 µg/mL; Survival rate, PO [6]: 100%; Survival rate, SC [6]: 100%"
O=c1nc(-c2ccccc2)c2cc([N+](=O)[O-])ccc2n1CC1CCCCCCC1 [compound 4],0.1 µg/mL,1000,100 µg/mL,
O=c1nc(-c2ccccc2Cl)c2cc([N+](=O)[O-])ccc2n1CC1CC1 [compound 20],5 µg/mL,10,50 µg/mL,
O=c1nc(-c2ccccc2)c2cc([N+](=O)[O-])ccc2n1CC1CCCO1 (centres unmarked) [compound 14],1.25 µg/mL,> 80,> 100 µg/mL,"No. of survivors/No. of tested ([5]; 1000 mg/kg intraperitoneally): 5/5; No. of survivors/No. of tested ([5]; 2000 mg/kg intraperitoneally): 4/5; Survival rate, SC [6]: 100%; Haemagglutinating titre [8]: 32"
O=c1nc(-c2ccccc2)c2cc([N+](=O)[O-])ccc2n1Cc1ccccn1 [compound 6],0.2 µg/mL,250,50 µg/mL,
NC12CC3CC(CC(C3)C1)C2 [Amantadine],,,,undesirable side effects [9]: severe side effect on central nervous system
O=c1nc(-c2ccccc2)c2cc([N+](=O)[O-])ccc2n1CCC1CCCCC1 [compound 15],5 µg/mL,> 20,> 100 µg/mL,
CSCn1c(=O)nc(-c2ccccc2)c2cc([N+](=O)[O-])ccc21 [compound 22],5 µg/mL,10,50 µg/mL,
O=c1nc(-c2ccccc2)c2cc([N+](=O)[O-])ccc2n1Cc1ccccc1 [compound 11],0.6 µg/mL,40,25 µg/mL,"Survival rate, SC [6]: 100%"
O=c1nc(-c2ccccc2)c2cc([N+](=O)[O-])ccc2n1C1CCCCC1 [compound 2],0.1 µg/mL,1000,100 µg/mL,Haemagglutinating titre ([7]; 12.5 μg/ml): 4; Haemagglutinating titre ([7]; 25 μg/ml): 2
O=c1nc(-c2ccccc2)c2cc([N+](=O)[O-])ccc2n1CC1CCCC1 [compound 7],0.2 µg/mL,> 500,> 100 µg/mL,
O=c1nc(-c2ccccc2)c2cc([N+](=O)[O-])ccc2n1Cc1ccco1 [compound 13],1 µg/mL,100,100 µg/mL,
O=c1nc(-c2ccccc2)c2cc([N+](=O)[O-])ccc2n1CC1CCCCC1 [compound 3],0.1 µg/mL,1000,100 µg/mL,"Survival rate, PO [6]: 100%; Survival rate, SC [6]: 100%; Haemagglutinating titre [8]: 32"
Cc1ccccc1Cn1c(=O)nc(-c2ccccc2)c2cc([N+](=O)[O-])ccc21 [compound 9],0.25 µg/mL,20,5 µg/mL,Average number of plaques [3]: 2; inhibition at 5 µg/mL [3]: 96%
O=c1nc(-c2cccs2)c2cc([N+](=O)[O-])ccc2n1CC1CCCCO1 (centres unmarked) [compound 10],0.4 µg/mL,> 250,> 100 µg/mL,
O=c1nc(-c2ccccc2)c2cc([N+](=O)[O-])ccc2n1CC1CC1 [compound 18],5 µg/mL,> 20,> 100 µg/mL,
